The supplement of paper PMC11451515

Experiments:
Details in all cases: 48 h
[1] = system: SEM cells; assay: AUC of viability dose-response curve (% viability x log10 dose units); higher = less sensitive
How it was run: (§1)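 In 1536-well plates, leukemia cells adapted to each medium (500 or 1000 cells/well) were exposed for 48 h at 37°C to library compounds in DMSO across 11 threefold doses, 47 μM down to 0.79 nM. Viability was read by CellTiter-Glo One luminescence and normalised per plate to DMSO and cell-free wells. A four-parameter log-logistic fit over log10 doses was integrated by trapezoidal rule. This yielded the area under the curve, with over-full-viability curves scaled and quality-control failures dropped.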

[2] = system: NOMO1; assay: as above
How it was run: as §1

[3] = system: P12-Ichikawa; assay: as above
How it was run: as §1

[4] = system: SEM cells; assay: cell viability relative to DMSO control; higher = less cytotoxic
How it was run: (§2)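 NOMO1 or SEM (500 cells/well) or P12-Ichikawa (1000 cells/well) leukemia cells were adapted for at least four passages in each medium. They were seeded in 1536-well plates (5 μl) and pin-dosed with library compounds in DMSO over an 11-point threefold series, 47 μM to 0.79 nM. CellTiter-Glo One luminescence was read after 48 h at 37°C. Viability is the per-plate percentage relative to DMSO wells, with cell-free wells as background.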

[5] = system: P12-Ichikawa; assay: as above
How it was run: as §2

[6] = system: NOMO1; assay: as above
How it was run: as §2

CN(C)Cc1c(C(=O)NCCOc2ccc(C(=O)NO)cc2)oc2ccccc12
AUC of viability dose-response curve
Details	[1]	[2]	[3]
HPLM + 10% dialyzed FBS	324	366	347
RPMI 5 mM glucose + 10% FBS	326	372	345
RPMI 5 mM glucose + 10% dialyzed FBS	332	375	357

O=C(N[C@@H](c1ccccc1)[C@@H]1CCCCN1)c1cccc(C(F)(F)F)c1Cl
AUC of viability dose-response curve
Details	[1]	[2]	[3]
HPLM + 10% dialyzed FBS	461	444	465
RPMI 5 mM glucose + 10% FBS	450	462	465
RPMI 5 mM glucose + 10% dialyzed FBS	407	408	464

O=C(NCCCCN1CCOCC1)c1cc2ccccc2o1
cell viability [%]
Details	HPLM + 10% dialyzed FBS	RPMI 5 mM glucose + 10% FBS	RPMI 5 mM glucose + 10% dialyzed FBS
[4], 0.000781 µM	–	102	–
[4], 0.00234 µM	–	122	–
[4], 0.00702 µM	–	112	–
[4], 0.0211 µM	–	123	–
[4], 0.0632 µM	–	121	–
[4], 0.19 µM	–	114	–
[4], 0.569 µM	–	96.6	–
[4], 1.71 µM	–	93.6	–
[4], 5.12 µM	–	99.9	–
[4], 15.4 µM	–	92.8	–
[4], 46.1 µM	–	98.4	–
[5], 0.000781 µM	119	115	123
[5], 0.00234 µM	122	122	128
[5], 0.00702 µM	119	120	123
[5], 0.0211 µM	115	118	131
[5], 0.0632 µM	114	106	118
[5], 0.19 µM	120	116	120
[5], 0.569 µM	113	107	115
[5], 1.71 µM	117	105	108
[5], 5.12 µM	112	101	116
[5], 15.4 µM	112	95.5	110
[5], 46.1 µM	102	101	108

AUC of viability dose-response curve
Details	[1]	[2]	[3]
HPLM + 10% dialyzed FBS	441	459	467
RPMI 5 mM glucose + 10% FBS	440	462	440
RPMI 5 mM glucose + 10% dialyzed FBS	457	451	448

CC(C)(C)c1nc(-c2cccc(N[S+](=O)([O-])c3c(F)cccc3F)c2F)c(-c2ccnc(N)n2)s1
AUC of viability dose-response curve
Details	[1]	[2]	[3]
HPLM + 10% dialyzed FBS	439	423	428
RPMI 5 mM glucose + 10% FBS	430	447	409
RPMI 5 mM glucose + 10% dialyzed FBS	425	434	385

O=C(Nc1c[nH]nc1-c1nc2cc(CN3CCOCC3)ccc2[nH]1)NC1CC1
cell viability [%]
Details	[4]	[5]	[6]
HPLM + 10% dialyzed FBS, 0.000781 µM	92.3	93.4	91.3
HPLM + 10% dialyzed FBS, 0.00234 µM	85.9	101	111
HPLM + 10% dialyzed FBS, 0.00702 µM	103	101	113
HPLM + 10% dialyzed FBS, 0.0211 µM	87.9	97.6	95.6
HPLM + 10% dialyzed FBS, 0.0632 µM	40.6	53.8	81.1
HPLM + 10% dialyzed FBS, 0.19 µM	45.9	12.7	102
HPLM + 10% dialyzed FBS, 0.569 µM	26	23.9	104
HPLM + 10% dialyzed FBS, 1.71 µM	16	38.5	104
HPLM + 10% dialyzed FBS, 5.12 µM	6.08	51.6	97.9
HPLM + 10% dialyzed FBS, 15.4 µM	3.77	36.5	51
HPLM + 10% dialyzed FBS, 46.1 µM	2.78	19.3	3.89
RPMI 5 mM glucose + 10% FBS, 0.000781 µM	96.7	97	85.9
RPMI 5 mM glucose + 10% FBS, 0.00234 µM	90	103	103
RPMI 5 mM glucose + 10% FBS, 0.00702 µM	107	101	97.1
RPMI 5 mM glucose + 10% FBS, 0.0211 µM	101	99.8	85.5
RPMI 5 mM glucose + 10% FBS, 0.0632 µM	22.7	59	56.3
RPMI 5 mM glucose + 10% FBS, 0.19 µM	22.5	16	55.3
RPMI 5 mM glucose + 10% FBS, 0.569 µM	17.1	38	78.7
RPMI 5 mM glucose + 10% FBS, 1.71 µM	10.4	47.3	84.9
RPMI 5 mM glucose + 10% FBS, 5.12 µM	3.98	45.1	89.4
RPMI 5 mM glucose + 10% FBS, 15.4 µM	2.18	38.6	61.2
RPMI 5 mM glucose + 10% FBS, 46.1 µM	2.92	14.1	4.23
RPMI 5 mM glucose + 10% dialyzed FBS, 0.000781 µM	95.1	99	88.3
RPMI 5 mM glucose + 10% dialyzed FBS, 0.00234 µM	93.5	98.6	102
RPMI 5 mM glucose + 10% dialyzed FBS, 0.00702 µM	110	91.5	92.6
RPMI 5 mM glucose + 10% dialyzed FBS, 0.0211 µM	77.2	102	93.7
RPMI 5 mM glucose + 10% dialyzed FBS, 0.0632 µM	26.9	65.2	67.1
RPMI 5 mM glucose + 10% dialyzed FBS, 0.19 µM	26.8	24.8	66.7
RPMI 5 mM glucose + 10% dialyzed FBS, 0.569 µM	22	45.8	84
RPMI 5 mM glucose + 10% dialyzed FBS, 1.71 µM	11.7	58.5	83
RPMI 5 mM glucose + 10% dialyzed FBS, 5.12 µM	4.09	60.2	86.7
RPMI 5 mM glucose + 10% dialyzed FBS, 15.4 µM	2.03	46.5	54.5
RPMI 5 mM glucose + 10% dialyzed FBS, 46.1 µM	3.29	14.2	4.36

AUC of viability dose-response curve
Details	HPLM + 10% dialyzed FBS	RPMI 5 mM glucose + 10% FBS	RPMI 5 mM glucose + 10% dialyzed FBS
[1]	219	202	199
[3]	270	282	304
